Source: patent publication US20160355530A1, “HEPATITIS C INHIBITORS AND USES THEREOF” (AbbVie Inc., priority 2010, published 2016)
pEC50, pIC50: −log10 of the molar value. Like-named read-outs stand apart in the source and are kept apart here.

Legend:
[1] = test system: HCV 1a-H77 subgenomic replicon; assay: microbe, parasite or virus in culture; type: cell-based, HCV genotype 1a; conditions: Hepatitis C virus, stable replicon
[2] = molecular target: T1, HCV NS5B polymerase 1b BK strain (Hepatitis C virus genotype 1b, UniProt P26663); assay: HCV NS5B polymerase enzymatic inhibition assay, strain 1b BK; type: biochemical; conditions: enzyme, strain 1b BK; read-out: HCV Polymerase Strain 1b BK IC50
T1 construct: six-histidine tag; made in house; host or cells: E. coli
Procedure: (§1) Purified HCV NS5B polymerase enzymes were used for polymerase inhibition assays. All recombinant HCV polymerases contained the first 570 amino acids of the 591 amino acid native protein sequence and a six-histidine tag at the N-terminus or C-terminus to facilitate purification by affinity chromatography. The DNA nucleotide sequence for the HCV polymerase 1b BK strain was codon optimized for expression in E. coli. A synthetic gene was prepared from a series of overlapping oligonucleotides that were filled in using a DNA polymerase and amplified by PCR. The patient isolate HCV polymerases were cloned by RT-PCR methods using HCV RNA extracted from the serum of infected subjects obtained from ProMedDx and BioCollections (genotypes 2a, 2b, 3a, and 4a). Laboratory strains were cloned from plasmid DNA (1a-H77 or 1a-H77-C316Y) or from existing replicon cells (1b Rice). In all cases the amplified DNA was cloned into a protein expression vector (typically a pET vector from Novagen) and then multiple clones were sequenced to identify one whose NS5B sequence agreed with the population sequence. This sequence-confirmed clone was then transfected into E. coli for protein expression and purification. E. coli cultures were grown to a maximum optical density (OD) of 2-3 and then induced with 0.4 mM isopropyl beta-D-thiogalactopyranoside (IPTG) and grown for 20 hours at 20° C.
(§2) Proteins were purified using nickel affinity chromatography, and additional column steps were added including, ion exchange, size exclusion, hydrophobic ion, and poly-U affinity chromatography, as needed, depending on the sample being purified. The template RNA used in the polymerase enzymatic assay was a 2.1 kb construct that corresponds to the 3′-end of an HCV genotype 1b negative strand RNA.
(§3) The reaction was initiated by the addition of 20 μM CTP, 20 μM ATP, 0.284 μM (0.5 μCi) of 5,6-[^3H] UTP, 5 nM template RNA and 0.1 U/μL RNase inhibitor (RNasin, Promega), and allowed to proceed for three hours at 30° C. The final reaction volume was 50 μL. The reaction was terminated by the addition of 50 uL of 4 mM spermine in 10 mM Tris-HCl, pH 7.5, 1 mM EDTA. The quenched reaction was allowed to incubate for at least 15 minutes at room temperature, and then the precipitated RNA was captured by filtration through a glass fiber filter (GF/B, Millipore) in a 96 well format. The filter plate was washed five times with 200 μL of 2 mM spermine, 10 mM Tris-HCl, pH 8.0, 1 mM EDTA, and two times with ethanol. After drying thoroughly in air, 30 μL of Microscint-20 scintillation cocktail (Perkin Elmer) was added to each well, and the retained cpm were determined by scintillation counting. IC50 values were determined by nonlinear regression.
(§4) % Inhibition=100*[[I]/([I]+[IC50])] equation 1
(§5) V=kcat[S]/2(Km+[S])*(sqrt((IC50+I−E)̂2+(4*IC50*E))−(IC50+I−E)) equation 2

[3] = test system: HCV 1b-BB7 subgenomic replicon; assay: microbe, parasite or virus in culture; type: cell-based, HCV genotype 1b; conditions: Hepatitis C virus, stable replicon
[4] = molecular target: T2, HCV NS5B polymerase 1a-H77-C316Y (Hepatitis C virus genotype 1a, UniProt P27958, C2736Y); assay: biochemical; parameters: species or system HCV genotype 1a
T2 construct: six-histidine tag; made in house; host or cells: E. coli
Procedure: as §1, §2, §3, §4, §5

[5] = test system: HCV NS5B polymerase 1a-H77-C316Y; assay: biochemical; parameters: species or system HCV genotype 1a; conditions: ratio of enzyme IC50s, 1a H77-C316Y / 1a H77
Procedure: as §1, §2, §3, §4, §5

[6] = molecular target: T3, HCV NS5B polymerase 1a-H77 (Hepatitis C virus genotype 1a, UniProt P27958); assay: biochemical; parameters: species or system HCV genotype 1a; conditions: enzyme, strain 1a H77; read-out: HCV Polymerase Strain 1a H77 IC50
T3 construct: six-histidine tag; made in house; host or cells: E. coli
Procedure: as §1, §2, §3, §4, §5

[7] = 5% FBS, absence of human plasma, read-out: Stable Replicon 1a H77 5% FBS EC50
[8] = strain 1a H77, 5% FBS + 40% human plasma, read-out: 1a H77 5% FBS + 40% Human Plasma EC50
[9] = strain 1a H77, 5% FBS, no human plasma, read-out: 1a H77 5% FBS EC50
[10] = strain 1a H77, 5% FBS, read-out: 1a H77 5% FBS EC50
[11] = strain 1b BB7, 5% FBS + 40% human plasma, read-out: 1b BB7 5% FBS + 40% Human Plasma EC50
[12] = strain 1b BB7, 5% FBS, no human plasma, read-out: 1b BB7 5% FBS EC50
[13] = strain 1b BB7, 5% FBS, read-out: 1b BB7 5% FBS EC50

T2 sequence (P27958 2421-2990 C2736Y): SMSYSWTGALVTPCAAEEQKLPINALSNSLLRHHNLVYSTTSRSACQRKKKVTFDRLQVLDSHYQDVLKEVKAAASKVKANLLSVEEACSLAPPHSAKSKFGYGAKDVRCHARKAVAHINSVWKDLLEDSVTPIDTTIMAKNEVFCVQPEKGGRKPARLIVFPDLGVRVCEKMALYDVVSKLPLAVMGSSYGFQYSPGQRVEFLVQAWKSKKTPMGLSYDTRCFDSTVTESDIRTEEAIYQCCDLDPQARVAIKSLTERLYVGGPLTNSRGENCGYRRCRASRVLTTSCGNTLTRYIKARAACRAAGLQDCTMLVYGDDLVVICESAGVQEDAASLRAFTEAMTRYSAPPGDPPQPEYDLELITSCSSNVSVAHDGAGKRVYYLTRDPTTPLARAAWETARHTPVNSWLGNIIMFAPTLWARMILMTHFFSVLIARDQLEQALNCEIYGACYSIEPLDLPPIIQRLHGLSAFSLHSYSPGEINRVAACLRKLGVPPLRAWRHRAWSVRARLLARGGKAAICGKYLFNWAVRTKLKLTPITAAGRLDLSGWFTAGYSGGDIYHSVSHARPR
T1 sequence (P26663 2420-2989): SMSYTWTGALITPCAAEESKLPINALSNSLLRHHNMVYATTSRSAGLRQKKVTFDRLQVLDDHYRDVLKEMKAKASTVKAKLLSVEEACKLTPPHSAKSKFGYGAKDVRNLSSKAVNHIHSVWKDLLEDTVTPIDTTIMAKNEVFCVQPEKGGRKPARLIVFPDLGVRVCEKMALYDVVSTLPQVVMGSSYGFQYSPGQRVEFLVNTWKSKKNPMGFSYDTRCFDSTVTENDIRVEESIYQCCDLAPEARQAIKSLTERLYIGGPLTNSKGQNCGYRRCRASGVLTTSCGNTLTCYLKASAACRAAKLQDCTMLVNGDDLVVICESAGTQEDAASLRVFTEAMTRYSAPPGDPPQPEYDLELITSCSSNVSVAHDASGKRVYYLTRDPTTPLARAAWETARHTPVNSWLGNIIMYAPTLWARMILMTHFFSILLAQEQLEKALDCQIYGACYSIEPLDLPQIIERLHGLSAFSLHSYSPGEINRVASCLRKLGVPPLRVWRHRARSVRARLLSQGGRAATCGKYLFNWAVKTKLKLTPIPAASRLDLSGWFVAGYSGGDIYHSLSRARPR
T3 sequence (P27958 2421-2990): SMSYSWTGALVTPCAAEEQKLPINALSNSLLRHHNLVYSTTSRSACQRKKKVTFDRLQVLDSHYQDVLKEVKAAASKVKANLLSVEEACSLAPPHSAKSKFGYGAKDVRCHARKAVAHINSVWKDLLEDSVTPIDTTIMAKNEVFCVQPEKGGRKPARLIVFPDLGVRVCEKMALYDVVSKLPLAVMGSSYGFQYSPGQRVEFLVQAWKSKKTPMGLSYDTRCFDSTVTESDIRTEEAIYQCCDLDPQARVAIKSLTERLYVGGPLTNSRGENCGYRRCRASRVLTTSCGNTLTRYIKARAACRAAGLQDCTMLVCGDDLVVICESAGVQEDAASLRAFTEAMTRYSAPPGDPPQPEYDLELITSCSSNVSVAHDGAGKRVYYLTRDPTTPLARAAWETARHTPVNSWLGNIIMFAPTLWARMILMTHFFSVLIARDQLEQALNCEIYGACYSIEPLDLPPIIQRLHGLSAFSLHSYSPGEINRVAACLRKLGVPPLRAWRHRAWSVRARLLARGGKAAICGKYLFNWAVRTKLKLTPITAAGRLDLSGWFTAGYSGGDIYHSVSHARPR

Row | Compound | pEC50 [1, 7] | pEC50 [1, 8] | pEC50 [1, 9] | pEC50 [1, 10] | pIC50 [2] | pEC50 [3, 11] | pEC50 [3, 12] | pEC50 [3, 13] | pIC50 [4] | C316Y/1a Fold Resistance [5] | pIC50 [6]
1 | CC(c1ccccc1)N(c1ccc2c(-c3ncc[nH]3)c(-c3ccccc3)oc2c1)S(C)(=O)=O (centres unmarked) [Example 20, N-[3-(1H-imidazol-2-yl)-2-phenyl-1-benzofuran-6-yl]-N-(1-phenylethyl)methanesulfonamide] | 6.00 | 5.00 | 6.00 | 6.00 | 7.28 | 5.14 | 6.88 | 6.88 | 6.76 | 5 fold | 7.46
2 | CS(=O)(=O)N(Cc1ccccc1)c1ccc2c(-c3ncc[nH]3)c(-c3ccccc3)oc2c1 [Example 21, N-benzyl-N-[3-(1H-imidazol-2-yl)-2-phenyl-1-benzofuran-6-yl]methanesulfonamide] | 5.46 | – | 5.46 | 5.46 | 7.00 | 5.00 | 6.23 | 6.23 | 7.05 | 2 fold | 7.32
3 | CS(=O)(=O)N(Cc1sc(Br)nc1C(F)(F)F)c1ccc2c(-c3ncc[nH]3)c(-c3ccccc3)oc2c1 [Example 22, N-{[2-bromo-4-(trifluoromethyl)-1,3-thiazol-5-yl]methyl}-N-[3-(1H-imidazol-2-yl)-2-phenyl-1-benzofuran-6-yl]methanesulfonamide] | 5.62 | – | 5.62 | 5.62 | 7.26 | – | 6.06 | 6.06 | 6.75 | 1 fold | 6.80
4 | CC(C)(C)Oc1ncc(-c2ncc(CN(c3ccc4c(-c5ncc[nH]5)c(-c5ccccc5)oc4c3)S(C)(=O)=O)s2)c(OC(C)(C)C)n1 [Example 27, N-{[2-(2,4-di-tert-butoxypyrimidin-5-yl)-1,3-thiazol-5-yl]methyl}-N-[3-(1H-imidazol-2-yl)-2-phenyl-1-benzofuran-6-yl]methanesulfonamide] | 6.06 | 5.00 | 6.06 | 6.06 | 7.00 | 5.26 | 7.12 | 7.12 | 5.42 | 18 fold | 6.67
5 | CS(=O)(=O)N(Cc1cnc(-c2c[nH]c(=O)[nH]c2=O)s1)c1ccc2c(-c3ncc[nH]3)c(-c3ccccc3)oc2c1 [Example 29, N-{[2-(2,4-dioxo-1,2,3,4-tetrahydropyrimidin-5-yl)-1,3-thiazol-5-yl]methyl}-N-[3-(1H-imidazol-2-yl)-2-phenyl-1-benzofuran-6-yl]methanesulfonamide] | 6.00 | 5.00 | 6.00 | 6.00 | 8.05 | 5.01 | 6.68 | 6.68 | 8.15 | 2 fold | 8.52
6 | CS(=O)(=O)N(Cc1cccc(C(F)(F)F)c1)c1ccc2c(-c3ncc[nH]3)c(-c3ccccc3)oc2c1 [Example 32, N-[3-(1H-imidazol-2-yl)-2-phenyl-1-benzofuran-6-yl]-N-[3-(trifluoromethyl)benzyl]methanesulfonamide] | 5.63 | – | 5.63 | 5.63 | 7.10 | 4.10 | 6.22 | 6.22 | 6.83 | 1 fold | 6.88
7 | CCOC(=O)CN(c1cc2oc(-c3ccc(F)cc3)c(-c3ncc[nH]3)c2cc1C1CC1)S(C)(=O)=O [Example 33, ethyl N-[5-cyclopropyl-2-(4-fluorophenyl)-3-(1H-imidazol-2-yl)-1-benzofuran-6-yl]-N-(methylsulfonyl)glycinate] | 6.79 | 5.05 | 6.79 | 6.79 | 6.82 | 5.32 | 6.70 | 6.70 | 5.72 | 181 fold | 7.98
8 | CS(=O)(=O)N(CC1CCCC1)c1cc2oc(-c3ccc(F)cc3)c(-c3ncc[nH]3)c2cc1C1CC1 [Example 34, N-(cyclopentylmethyl)-N-[5-cyclopropyl-2-(4-fluorophenyl)-3-(1H-imidazol-2-yl)-1-benzofuran-6-yl]methanesulfonamide] | 7.15 | 5.89 | 7.15 | 7.15 | 7.66 | 6.07 | 7.19 | 7.19 | 6.83 | 30 fold | 8.30
9 | CS(=O)(=O)N(CCc1ccccc1)c1cc2oc(-c3ccc(F)cc3)c(-c3ncc[nH]3)c2cc1C1CC1 [Example 35, N-[5-cyclopropyl-2-(4-fluorophenyl)-3-(1H-imidazol-2-yl)-1-benzofuran-6-yl]-N-(2-phenylethyl)methanesulfonamide] | 6.99 | 5.80 | 6.99 | 6.99 | 8.15 | 5.95 | 7.29 | 7.29 | 6.95 | 23 fold | 8.31
10 | CS(=O)(=O)N(CC(N)=O)c1cc2oc(-c3ccc(F)cc3)c(-c3ncc[nH]3)c2cc1C1CC1 [Example 36, N^2-[5-cyclopropyl-2-(4-fluorophenyl)-3-(1H-imidazol-2-yl)-1-benzofuran-6-yl]-N^2-(methylsulfonyl)glycinamide] | 6.52 | 5.67 | 6.52 | 6.52 | 6.73 | 5.95 | 6.74 | 6.74 | 5.47 | 428 fold | 8.10
11 | CC(C)CCCN(c1cc2oc(-c3ccc(F)cc3)c(-c3ncc[nH]3)c2cc1C1CC1)S(C)(=O)=O [Example 40, N-[5-cyclopropyl-2-(4-fluorophenyl)-3-(1H-imidazol-2-yl)-1-benzofuran-6-yl]-N-(4-methylpentyl)methanesulfonamide] | 7.64 | 6.28 | 7.64 | 7.64 | 7.72 | 6.35 | 7.64 | 7.64 | 7.15 | 11 fold | 8.19
12 | CS(=O)(=O)N(CCCc1ccccc1)c1cc2oc(-c3ccc(F)cc3)c(-c3ncc[nH]3)c2cc1C1CC1 [Example 41, N-[5-cyclopropyl-2-(4-fluorophenyl)-3-(1H-imidazol-2-yl)-1-benzofuran-6-yl]-N-(3-phenylpropyl)methanesulfonamide] | 7.14 | 6.04 | 7.14 | 7.14 | 7.80 | 6.44 | 7.40 | 7.40 | 7.24 | 12 fold | 8.30
